The values that follow come from patent US20090221576A1, “Pharmaceutical Use of 2-Hydroxy-3-[5-(Morpholin-4-Ylmethyl) Pyridin-2-YL]-1H-IN-Dole-5-Carbonitrile as a Free Base or Salts” (ASTRAZENECA AB GLOBAL INTELLECTUAL PROPERTY, priority 2006, published 2009).

The experiment concerns Han Wistar rats. Kind of experiment: Increased bone formation in rats, four-week oral gavage study, light microscopy of femur, femorotibial joint and sternum. It is filed as in vivo, rat. The procedure:
Male and female Han Wistar rats were dosed by oral gavage, at dosages of 15, 55 or 100 μmol/kg/day for four weeks and compared to vehicle controls. Complete necropsies were performed and the tissues preserved in 10% formalin. The femur, femorotibial joint and sternum were decalcified, embedded in paraffin, sectioned at 5 μm thickness and stained with hematoxylin and eosin.

[1] abbreviates: rat, 100 μmol/kg for 4 weeks, vs vehicle-treated control rat (FIG. 1a).

For `N#Cc1ccc2[nH]c(O)c(-c3ccc(CN4CCOCC4)cn3)c2c1.O=C(O)CC(O)(CC(=O)O)C(=O)O` [Example 1, 2-Hydroxy-3-[5-(morpholin-4-ylmethyl)pyridin-2-yl]1H-indole-5-carbonitrile citrate salt], the “bone formation as evaluated by light microscopy” value (male and female Han Wistar rats, oral gavage, 100 μmol/kg dose level, four weeks, vs vehicle controls, femur, femorotibial joint, sternum, H&E) is “increased bone formation in the form of thickened trabeculae, thickened cortical bone, periosteal hyperostosis and increased number of osteoblasts”.

In the case of `N#Cc1ccc2[nH]c(O)c(-c3ccc(CN4CCOCC4)cn3)c2c1` [compound (I), 2-hydroxy-3-[5-(morpholin-4-ylmethyl)pyridin-2-yl]1H-indole-5-carbonitrile], under setting [1], the “formation of osteoid in the femur (epiphysis), FIG. 1b” value is reported as “marked increase in formation of osteoid” and the “number of osteoblasts in the femur (epiphysis), FIG. 1b” value was “increased number of osteoblasts”.
